The values that follow come from ChEMBL document CHEMBL1201862, “PubChem BioAssay data set” (2004).

Among the test systems are OVCAR-5; EKVX; NCI-H23; NCI-H460; BT-549; MCF7; SF-268; UACC-257; CCRF-CEM; CAKI-1; LOX IMVI; NCI-H226; COLO 205; KM12; DU-145; ACHN; 786-0; SK-OV-3; T47D.
Common to all, as to experiment: NCI anticancer screen, dose series, 48 h

Where a name gives a salt, the structure may show the parent alone.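 These data come from cells grown in 96-well plates and exposed to compound for 48 hours at five concentrations. Abbreviation: GI50, concentration required for 50% inhibition of growth.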 Active and inactive are the calls of the source. No stated cut-off is given here; in the data, active = GI50 up to about 1.1 µM and inactive = higher.

As to `CC(C)(C)OC(=O)NC(Cc1ccc(OCc2ccccc2)cn1)C(N)=O` (stereo not given), the GI50 with OVCAR-5 is > 100 µM (inactive); with EKVX it was > 100 µM (inactive); with NCI-H23 it was 86.5 µM (inactive); in the assay on NCI-H460, > 100 µM (inactive); in the assay on BT-549, > 100 µM (inactive); with MCF7 it was 46.3 µM (inactive). Moreover, the GI50 is > 100 µM (inactive) in the assay with SF-268; 75.2 µM (inactive) with UACC-257; > 100 µM (inactive) in the assay on CCRF-CEM; > 100 µM (inactive) in the assay on CAKI-1; > 100 µM (inactive) in the assay with LOX IMVI; 97.3 µM (inactive) in the assay with NCI-H226. Also, the GI50 in the assay with COLO 205, with KM12, in the assay with DU-145, with ACHN and in the assay with 786-0 was > 100 µM (inactive) in each case.

For the compound `CC1(C)C2CCC3CC(CCC#N)CCC3C21C#N` (stereo not given), the GI50 in the assay with SK-OV-3, in the assay with T47D, in the assay with OVCAR-5, with EKVX, with NCI-H23 and in the assay on NCI-H460 was > 100 µM (inactive) throughout. For the same compound, the GI50 in the assay on MCF7, in the assay with SF-268, in the assay on UACC-257, in the assay on CCRF-CEM, with CAKI-1 and in the assay with LOX IMVI was > 100 µM (inactive) each time. Besides, the GI50 in the assay with NCI-H226 was > 100 µM (inactive); in the assay on COLO 205, > 100 µM (inactive); with KM12 it was 18 µM (inactive); in the assay on DU-145, > 100 µM (inactive); with ACHN it was > 100 µM (inactive); in the assay with 786-0, > 100 µM (inactive).

As to `CCOC(=O)CCN1C(=O)C(=O)N(c2ccc(OC)cc2)C1=S`, the GI50 with SK-OV-3 was > 100 µM (inactive); in the assay on T47D, > 100 µM (inactive); in the assay on OVCAR-5 it was > 100 µM (inactive); in the assay on EKVX it was > 100 µM (inactive); in the assay with NCI-H23, > 100 µM (inactive); with NCI-H460, 53.5 µM (inactive). In addition, the GI50 in the assay with SF-268 is > 100 µM (inactive); in the assay with UACC-257, > 100 µM (inactive); in the assay with CCRF-CEM, > 100 µM (inactive); in the assay on CAKI-1, > 100 µM (inactive); in the assay on LOX IMVI, > 100 µM (inactive); in the assay on NCI-H226 it was 25.6 µM (inactive). Besides, the GI50 in the assay with COLO 205 was > 100 µM (inactive); in the assay on KM12 it was 39.1 µM (inactive); in the assay on DU-145, > 100 µM (inactive); with ACHN, > 100 µM (inactive); in the assay on 786-0, > 100 µM (inactive).

In the case of `CN(C)CCOc1ccc(/C(=C(/CCCl)c2ccccc2)c2ccccc2)cc1` [TOREMIFENE CITRATE], the GI50 in the assay with T47D was 11.6 µM (inactive); in the assay with OVCAR-5, 18.1 µM (inactive); in the assay on EKVX it was 15.9 µM (inactive); in the assay on NCI-H23, 17.5 µM (inactive); in the assay with NCI-H460, 15.7 µM (inactive); in the assay on MCF7, 1.58 µM (inactive). Further, the GI50 with SF-268 is 17.4 µM (inactive); in the assay on UACC-257, 20.3 µM (inactive); with CCRF-CEM, 6.1 µM (inactive); in the assay with CAKI-1, 15 µM (inactive); in the assay on LOX IMVI, 18.1 µM (inactive); in the assay with NCI-H226, 19.1 µM (inactive). For the same compound, the GI50 is 19.4 µM (inactive) in the assay on COLO 205; 17.7 µM (inactive) with KM12; 17.7 µM (inactive) with DU-145; 17.5 µM (inactive) in the assay with ACHN; 17.8 µM (inactive) in the assay with 786-0.

As to `COc1cc(C2SCC(=O)N2c2cccc(Cl)c2)cc(OC)c1OC` (stereo not given), the GI50 in the assay with SK-OV-3 was > 100 µM (inactive); in the assay on OVCAR-5 it was > 100 µM (inactive); in the assay with EKVX, 76.9 µM (inactive); in the assay on NCI-H23, > 100 µM (inactive); in the assay on NCI-H460, > 100 µM (inactive); in the assay on BT-549, 26.4 µM (inactive). Besides, the GI50 with MCF7 was 46.8 µM (inactive); in the assay with SF-268, > 100 µM (inactive); in the assay with UACC-257, > 100 µM (inactive); in the assay with CCRF-CEM, 27.7 µM (inactive); in the assay on CAKI-1, 55.7 µM (inactive); in the assay on LOX IMVI it was 70.1 µM (inactive). For the same compound, the GI50 was > 100 µM (inactive) with NCI-H226; > 100 µM (inactive) in the assay with COLO 205; 47.8 µM (inactive) with KM12; 63.7 µM (inactive) in the assay on DU-145; > 100 µM (inactive) in the assay on ACHN; 51.6 µM (inactive) with 786-0.

With `CC1(C)C=C(/C=N/Nc2ccccc2)C(C#N)=C(O)C1(C#N)C#N`, the GI50 in the assay on SK-OV-3 is > 100 µM (inactive); in the assay with OVCAR-5 it was > 100 µM (inactive); in the assay on EKVX it was > 100 µM (inactive); in the assay with NCI-H23 it was > 100 µM (inactive); in the assay on NCI-H460 it was 92.7 µM (inactive); in the assay with MCF7 it was > 100 µM (inactive). In addition, the GI50 in the assay with SF-268 is > 100 µM (inactive); with UACC-257, > 100 µM (inactive); in the assay with CCRF-CEM it was 68.4 µM (inactive); in the assay on CAKI-1, > 100 µM (inactive); in the assay with LOX IMVI, > 100 µM (inactive); with NCI-H226, > 100 µM (inactive). Further, the GI50 with COLO 205 is 74.1 µM (inactive); in the assay on KM12, > 100 µM (inactive); in the assay with DU-145, > 100 µM (inactive); with ACHN, > 100 µM (inactive); in the assay with 786-0, > 100 µM (inactive).

With `COc1ccc(-c2nc(-c3cnccn3)n(C3OC(CO)C(O)C3O)n2)cc1` (stereo not given), the GI50 in the assay on SK-OV-3, in the assay on OVCAR-5, in the assay on EKVX, in the assay on NCI-H23, in the assay on NCI-H460 and in the assay on BT-549 was > 10 µM (inactive) in each case. For the same compound, the GI50 in the assay on MCF7, in the assay on SF-268, with UACC-257, in the assay on CCRF-CEM, in the assay on LOX IMVI and with NCI-H226 was > 10 µM (inactive) throughout. In addition, the GI50 in the assay with KM12, with ACHN and in the assay on 786-0 was > 10 µM (inactive) throughout.

`c1csc(-c2ccsc2-c2cccs2)c1`: the GI50 with SK-OV-3 was > 100 µM (inactive); in the assay with T47D, 29.9 µM (inactive); in the assay on OVCAR-5, > 100 µM (inactive); with EKVX, > 100 µM (inactive); in the assay with NCI-H23, 13.3 µM (inactive); with NCI-H460, 80.9 µM (inactive). Also, the GI50 in the assay on MCF7 is 34.6 µM (inactive); with SF-268 it was > 100 µM (inactive); in the assay with UACC-257 it was > 100 µM (inactive); in the assay on CCRF-CEM, 76.9 µM (inactive); in the assay with CAKI-1, > 100 µM (inactive); in the assay with LOX IMVI, 98.6 µM (inactive). Also, the GI50 is 46.8 µM (inactive) with NCI-H226; 52.2 µM (inactive) in the assay on COLO 205; 47.6 µM (inactive) in the assay with KM12; > 100 µM (inactive) in the assay with DU-145; > 100 µM (inactive) in the assay on ACHN; > 100 µM (inactive) with 786-0.

With `OCC(O)C(O)C(C=NNc1ncnc2ccc(Br)cc12)=NNc1ncnc2ccc(Br)cc12` (stereo not given), the GI50 with SK-OV-3 was 2.59 µM (inactive); in the assay on T47D, 0.413 µM (active); in the assay on OVCAR-5, 5.13 µM (inactive); in the assay on EKVX, 0.581 µM (active); in the assay on MCF7 it was 0.479 µM (active); with SF-268 it was 1.16 µM (inactive). Further, the GI50 is 3.52 µM (inactive) with UACC-257; 2.22 µM (inactive) with CAKI-1; 0.991 µM (active) with LOX IMVI; 2.12 µM (inactive) in the assay on NCI-H226; 0.366 µM (active) in the assay on COLO 205; 5.7 µM (inactive) with KM12. Also, the GI50 was 1.85 µM (inactive) in the assay on ACHN and 1.14 µM (inactive) in the assay on 786-0.

Turning to `COC(=O)c1cc(S(=O)(=O)NC2=NNC(C)CN2)c(S)cc1Cl` (stereo not given), the GI50 is > 100 µM (inactive) with SK-OV-3; 65.3 µM (inactive) with OVCAR-5; 90.2 µM (inactive) with EKVX; 44.8 µM (inactive) in the assay on NCI-H23; 44.8 µM (inactive) in the assay on NCI-H460; > 100 µM (inactive) in the assay with BT-549. Further, the GI50 is 42 µM (inactive) in the assay with MCF7; 13.5 µM (inactive) in the assay on SF-268; > 100 µM (inactive) in the assay on UACC-257; 84.1 µM (inactive) in the assay with CCRF-CEM; > 100 µM (inactive) in the assay on CAKI-1; 37.5 µM (inactive) in the assay on LOX IMVI. The GI50 in the assay on COLO 205 was 52.7 µM (inactive); in the assay with KM12, 40.4 µM (inactive); with DU-145 it was 78.9 µM (inactive); in the assay on ACHN, > 100 µM (inactive); in the assay on 786-0 it was 56.1 µM (inactive).

Take `COc1ccc2cc(C(=O)Nc3ccc(O)c(C(=O)O)c3)ccc2c1OC`: the GI50 in the assay with SK-OV-3, in the assay on T47D, in the assay with OVCAR-5, in the assay on EKVX, in the assay on NCI-H23 and in the assay on NCI-H460 was > 100 µM (inactive) throughout. In addition, the GI50 in the assay on MCF7, with SF-268, in the assay on UACC-257, with CCRF-CEM, in the assay on CAKI-1 and with LOX IMVI was > 100 µM (inactive) throughout. Also, the GI50 in the assay with NCI-H226, with KM12, in the assay with DU-145, with ACHN and with 786-0 was > 100 µM (inactive) each time.

For the compound `C#CC1(O)CC(c2ccccc2)N(C)C(c2ccccc2)C1` (stereo not given), the GI50 with SK-OV-3, with OVCAR-5, with EKVX, in the assay with NCI-H23, with NCI-H460 and with SF-268 was > 100 µM (inactive) throughout. The GI50 is > 100 µM (inactive) in the assay with UACC-257; > 100 µM (inactive) in the assay with CCRF-CEM; > 100 µM (inactive) in the assay with CAKI-1; 51.5 µM (inactive) in the assay with LOX IMVI; > 100 µM (inactive) in the assay with NCI-H226; > 100 µM (inactive) in the assay with COLO 205. The GI50 in the assay on KM12, in the assay on ACHN and with 786-0 was > 100 µM (inactive) in each case.
